Test results published in PMC3118409 (Cell, 2011).
Where “and” joins values, the source holds several entries; their conditions need not be identical. Equal entries are not always repeated. Where two headings read alike, the source gives them in different places.

Tests used:
[1] = Ro 61-8048 levels in plasma and tissues of chronically JM6-treated R6/2 mice; type: in vivo
[2] = type: in vivo, mice; details: 5 h
[3] = Metabolic stability of Ro 61-8048; type: in vitro ADME; details: data not shown
[4] = biological target: KMO (Rattus norvegicus, UniProt O88867); experiment: Inhibition of KMO; type: biochemical; details: read-out: IC50 for KMO
KMO (Rattus norvegicus, UniProt O88867), sequence (O88867 whole entry): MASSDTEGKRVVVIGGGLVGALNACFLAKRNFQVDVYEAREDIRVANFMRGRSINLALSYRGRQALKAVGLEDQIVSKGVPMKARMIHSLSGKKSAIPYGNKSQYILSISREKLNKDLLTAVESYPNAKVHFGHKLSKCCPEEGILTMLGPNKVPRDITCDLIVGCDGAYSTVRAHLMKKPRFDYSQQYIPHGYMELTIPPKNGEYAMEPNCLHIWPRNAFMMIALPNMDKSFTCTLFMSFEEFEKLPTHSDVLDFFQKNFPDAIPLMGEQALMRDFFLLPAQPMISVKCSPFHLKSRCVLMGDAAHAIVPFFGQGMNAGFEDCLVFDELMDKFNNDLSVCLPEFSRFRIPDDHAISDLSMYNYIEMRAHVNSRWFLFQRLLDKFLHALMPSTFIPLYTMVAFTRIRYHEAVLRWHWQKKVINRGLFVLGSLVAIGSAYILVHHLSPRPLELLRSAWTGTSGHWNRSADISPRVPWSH

[5] = tested on: KMO; experiment: In vivo microdialysis in striatum and serum sampling of rats after acute JM6; details: for Level in brain dialysate: JM6 100 mg/kg p.o., data not shown
[6] = tested on: APPtg mice; type: in vivo; details: JM6 75 mg/kg/day p.o. for 120 days
[7] = tested on: R6/2 mice; experiment: Neuropathology; type: in vivo
[8] = tested on: WT mice; experiment: Chronic tolerability of JM6 in WT mice; type: in vivo; details: JM6 25 mg/kg/day p.o. for 12 months, data not shown
[9] = tested on: R6/2 mice; experiment: Survival, body weight and rotarod in R6/2 mice; type: in vivo; details: chronic JM6 p.o., data not shown
[10] = tested on: APPtg mice; experiment: Elevated plus maze in APPtg mice; type: in vivo; details: JM6 75 mg/kg/day p.o. for ~120 days
[11] = tested on: APPtg mice; experiment: Neuropathology; type: in vivo
[12] = tested on: APPtg mice; experiment: Morris water maze in APPtg mice; type: in vivo
[13] = tested on: KMO; experiment: In vivo microdialysis in prefrontal cortex of rats treated 7 days with JM6; details: JM6 for 7 days, 100 mg/kg/day p.o. (legend: 75 mg/kg/day)
[14] = biological target: kynurenine aminotransferase II (KAT II) (Rattus norvegicus, UniProt Q64602); experiment: Reverse microdialysis of the KAT II inhibitor ESBA in JM6-treated rats; type: in vivo; details: JM6 100 mg/kg p.o., ESBA 1 mM locally for 2 h by reverse microdialysis
kynurenine aminotransferase II (KAT II), sequence (Q64602 30-425): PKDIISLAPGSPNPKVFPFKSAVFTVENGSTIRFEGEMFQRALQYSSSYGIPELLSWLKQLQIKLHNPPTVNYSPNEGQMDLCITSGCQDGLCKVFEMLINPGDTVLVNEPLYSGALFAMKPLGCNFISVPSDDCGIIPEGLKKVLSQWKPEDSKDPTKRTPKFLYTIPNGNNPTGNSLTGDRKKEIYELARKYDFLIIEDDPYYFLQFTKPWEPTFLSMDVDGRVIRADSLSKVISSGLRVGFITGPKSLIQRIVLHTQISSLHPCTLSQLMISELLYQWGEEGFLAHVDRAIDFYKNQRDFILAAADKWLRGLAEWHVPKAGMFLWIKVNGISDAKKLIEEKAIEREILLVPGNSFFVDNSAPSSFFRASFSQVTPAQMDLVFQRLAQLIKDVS

[15] = R6/2 mice chronically treated with JM6
[16] = WT mice, single JM6 300 mg/kg p.o., LC/MS
[17] = WT mice, single JM6 300 mg/kg p.o., LC/MS, 300 mg/kg
[18] = JM6 7.5 or 25 mg/kg/day p.o., 12-week-old mice
[19] = JM6 75 mg/kg/day p.o., data not shown

Compound: COc1ccc(S(=O)(=O)Nc2nc(-c3cccc([N+](=O)[O-])c3)cs2)cc1OC [Ro 61-8048, 3,4-dimethoxy-[-N-4-(nitrophenyl)thiazol-2yl]-benzenesulfonamide]
- Plasma concentration relative to IC50 for KMO [1, 15]: more than eightfold
- Ro 61-8048 released from JM6, concentration in plasma [1, 15]: ~ 280 nM
- Ro 61-8048 released from JM6 in brain or muscle homogenates ([1]; R6/2 mice chronically treated with JM6, data not shown): could not be detected
- Muscle and liver levels after acute dosing ([2]; WT mice, JM6 300 mg/kg p.o.): negligible
- Ro 61-8048 released from JM6, brain level as % of plasma levels ([2]; WT mice, single JM6 300 mg/kg p.o.): 0.002%
- Ro 61-8048 released from JM6, concentration in brain [2, 16]: 18 nM and 18 ± 5 nM
- Ro 61-8048 released from JM6, concentration in plasma [2, 16]: 7 µM and 7.2 ± 0.8 µM
- Ro 61-8048 released from JM6, concentration in liver ([2]; mice, JM6 300 mg/kg p.o.): 132 nM
- Ro 61-8048 released from JM6, concentration in muscle ([2]; mice, JM6 300 mg/kg p.o.): 149 nM
- Metabolic stability [3]: metabolically unstable
- IC50 [4]: 37 nM
- Level in brain dialysate [5]: < 10 nM

Compound: COc1ccc(S(=O)(=O)Nc2nc(-c3cccc([N+](=O)[O-])c3)c(CN3CCCCC3)s2)cc1OC [JM6, 2-(3,4-dimethoxybenzenesulfonylamino)-4-(3-nitrophenyl)-5-(piperidin-1-yl)methylthiazole]
- Muscle and liver levels after acute dosing ([2]; WT mice, JM6 300 mg/kg p.o.): negligible
- JM6 concentration in brain [2, 17]: 119 ± 46 nM
- JM6 concentration in plasma [2, 17]: 39.1 ± 13.2 µM
- Brain 3-HK levels, APPtg mice, vs control mice [6]: not significantly different
- Brain KMO activity, APPtg mice, vs control mice [6]: not significantly different
- Brain KYNA levels, APPtg mice [6]: increased
- Brain QUIN levels, APPtg mice, vs control mice [6]: not significantly different
- Plasma KYNA levels, APPtg mice [6]: increased
- Plasma QUIN levels, APPtg mice, vs control mice [6]: not significantly different
- Inclusion body size or abundance in frontoparietal cortex, R6/2 mice ([7]; JM6 25 mg/kg/day p.o. from 4 weeks of age, EM48 immunostaining): did not influence
- Iba1-positive cells (microglia) vs vehicle-treated controls, R6/2 mice ([7]; JM6 7.5 or 25 mg/kg/day p.o. from 4 weeks of age): significantly fewer
- Fos immunoreactivity in striatum and cortex, R6/2 mice [7, 18]: prevented the loss
- Synaptophysin in striatum and cortex, R6/2 mice [7, 18]: prevented the loss
- Adverse effects on open field behavior, motor performance, or body weight [8]: no adverse effects
- Body weight of R6/2 mice [9]: did not influence
- Performance on accelerating rotarod, R6/2 mice ([9]; early stages of disease): modestly improved
- Increase in distance traveled in the open arm of the EPM, APPtg mice [10]: significantly attenuated
- Time spent in the open arm of the elevated plus maze, APPtg mice [10]: not significantly different from WT littermate controls
- Total distance traveled in the EPM (open and closed arm), APPtg mice [10]: not changed
- Synaptic loss (synaptophysin) in cortex and hippocampus, APPtg mice ([11]; JM6 75 mg/kg/day p.o. for 120 days, ~7 months of age): prevented
- Aβ plaque load in hippocampus and cortex, APPtg mice [11, 19]: did not have a significant effect
- Spatial memory in Morris water maze, WT mice ([12]; JM6 75 mg/kg/day p.o.): no effect
- Spatial memory in Morris water maze, APPtg mice ([12]; JM6 75 mg/kg/day p.o. from 2 months of age, tested at ~6 months): significant improvement
- Spatial learning in WT or APPtg mice [12, 19]: did not influence
- Extracellular glutamate levels in the brain (prefrontal cortex) [13]: significant reduction
- Level in brain dialysate [5]: < 10 nM
- Serum KYNA level, % of baseline ([5]; single JM6 100 mg/kg p.o., by 5 h): 344%
- Extracellular KYNA level in brain (striatum), % of baseline ([5]; single JM6 100 mg/kg p.o., by 5 h, microdialysis): 180%

Compound: CCS(=O)(=O)c1ccc(C(=O)C[C@H](N)C(=O)O)cc1.Cl [ESBA, (S)-(4-ethylsulfonyl)benzoylalanine hydrochloride]
- Effect on JM6-induced increases in brain KYNA [14]: prevented completely
- Effect on KYNA levels in serum [14]: unaffected
